The values below come from patent US20240287123A1 (Victoria Link Limited, priority 2021, published 2024).

SMILES strings stand for the structures. “Also recorded” adds a separate entry of the source. Where two headings read alike, the source gives them in different places.

Series [1] deals with HIVADA. As to the kind of experiment: HIV p24 alphaLISA in infected monocyte derived macrophages. In kind it is cell-based, Human Immunodeficiency Virus. The procedure:
Primary human MDMs were cultured from peripheral blood mononuclear cells and pre-treated for 24 h with ddhC (100 μM), compound 8 (100 μM), compound 21 (100 μM), emtricitabine control (15 μM, 10 μM, 1 μM, 0.1 μM), or the drug vehicle, DMSO. MDM were then infected with HIVADA in the presence of these compounds and treated daily (with compound), while culture supernatants were collected to quantify levels of HIV p24, a viral capsid protein, on days 2-7 of infection.
Leukopaks from healthy donors were obtained from the New York Blood Center and processed by Ficoll gradient centrifugation to isolate peripheral blood mononuclear cells (PBMC). These PBMC were cultured adherently into monocyte derived macrophages (MDM), according to published protocols, on 60 mm dishes for 6 days with 10-20 ng/ml macrophage colony stimulating factor (M-CSF). MDM were pre-treated with ddhC, compound 8, compound 21, emtricitabine (Cat. No .: 10071), or DMSO vehicle at indicated concentrations for 24 hours (NIH AIDS Reagent Program, Bethesda, MD). Cells were left uninfected or infected for 24 h in the presence of one of the compounds listed above with 20 ng/mL HIVADA, a macrophage-tropic HIV strain originally derived from a person with HIV (NIH). Media was changed daily with the mentioned compounds added each time, and supernatants were collected on days 2, 3, 4, 5, 6, and 7 of infection. Each treatment condition was analyzed in duplicate plates per experiment.
Supernatant samples were analyzed for the viral capsid protein, HIV p24, by a sensitive p24 alphaLISA according to the manufacturer's protocol (Perkin-Elmer, Waltham, MA). Treatment conditions were analyzed in duplicate plates, and each supernatant was analyzed in duplicate on a 96-well alphaLISA plate. These were then fit to a sigmoid standard curve to extrapolate HIV p24 levels in pg/mL within the assay limits of detection.

The subject of series [2] is EBV (Akata/Akata). As to the kind of experiment: EBV assay: viral DNA quantification in induced Akata cells. The series is classed as cell-based, Epstein-Barr virus. Particulars: for activity against EBV: cell-based assay, highest concentration tested in primary assays 50 μM. The procedure: Akata cells were obtained from Louisiana State University, Baton Rouge, LA. The HCMV strain AD169 was obtained from the American Type Culture Collection (ATCC, Manassas, VA). Akata cells latently infected with EBV were obtained from Louisiana State University, Baton Rouge, LA.
(§1) Each experiment that evaluates the antiviral activity of compounds includes both positive and negative control compounds to ensure the performance of each assay. Concurrent assessment of cytotoxicity was also performed for each study in the same cell line and with the same compound exposure.
Assays for EBV were performed by reported methods.^37 Akata cells were induced to undergo a lytic infection with 50 μg/ml of a goat anti-human IgG antibody. Experimental compounds were diluted within plates. The cells were added and incubated for 72 h. Similar plates were initiated without virus induction/addition and used for measuring cytotoxicity by the addition of CTG. For all assays, the replication of the virus was assessed by the quantification of viral DNA. For EBV, primers 5′-[…]-3′ and 5′-CAG TTC CTC GCCTTAGGTTG-3 amplified a fragment corresponding to coordinates 96802-97234 in EBV genome (AJ507799). Compound concentrations sufficient to reduce genome copy number by 50% were calculated from experimental data as well as compound cytotoxicity.

Series [3] has as its system primary human MDM. As to the kind of experiment: Toxicity to MDM: LDH assay and light microscopy. In kind it is cell-based. The procedure:
Light microscopy was used to image MDMs on day 7 of infection. […] Colorimetric LDH assays were also performed on culture supernatants from these same cells on day 4 of infection to assess cell death.
At the end of each experiment, cells were imaged by light microscopy. After aspirating off media, cells were washed with PBS, and lysates were harvested in extraction buffer containing 0.1% Formic acid, 50% ACN, 40% MeOH, 10% H2O.
Drug toxicity was analyzed using an LDH assay kit according to manufacturer's instructions (Abcam #ab65393, Toronto, Canada). Briefly, supernatants from duplicate plates per treatment condition were added to a 96-well plate. Each supernatant was run in triplicate. Provided assay buffer was added to culture supernatants after mixing with a substrate solution that turns orange upon lactate exposure. After incubation for 30-45 min, colorimetric signal was quantified an OD of 450 nm. LDH was a positive control as well as cells lysed with 10% lysis buffer in media representing the “high control” to which % cytotoxicity was measured. The reference sample was either control uninfected cells treated with DMSO or negative control HIV-infected cells treated with DMSO. Culture media alone was used as a technical negative control. This background signal that was subtracted from all test wells.

A short description of series [4]: Cytotoxicity in Akata cells (CTG), concurrent with EBV assay. In kind it is cell-based. The settings on record: human, Table 1. The method, then:
as §1
Assays for EBV were performed by reported methods.^37 Akata cells were induced to undergo a lytic infection with 50 μg/ml of a goat anti-human IgG antibody. Experimental compounds were diluted within plates. The cells were added and incubated for 72 h. Similar plates were initiated without virus induction/addition and used for measuring cytotoxicity by the addition of CTG. For all assays, the replication of the virus was assessed by the quantification of viral DNA. […] Compound concentrations sufficient to reduce genome copy number by 50% were calculated from experimental data as well as compound cytotoxicity.

The test system of series [5] is HHV-6B (Z29; MOLT-3). As to the kind of experiment: HHV-6B antiviral assay (Z29; MOLT-3). The series is classed as cell-based, human betaherpesvirus 6B.
Where [6] appears, read: human gammaherpesvirus 4, Akata, Akata/Akata, Table 1, read-out: EBV EC50.
The mark [7] stands for this setting: human gammaherpesvirus 4, Akata, read-out: Result for compound (EC50/UM), EBV Akata/Akata, assay order Primary.
[8] abbreviates: human gammaherpesvirus 4, Akata, read-out: EC50 against EBV.
Setting [9] is: human gammaherpesvirus 4, Akata, EBV Akata/Akata, assay order Secondary, read-out: Result for compound (EC50/UM).
Where [10] appears, read: human gammaherpesvirus 4, Akata, read-out: Result for compound (EC50/UM), EBV Akata/Akata, assay order Secondary.

The CC50 is the concentration giving 50% cytotoxicity. A higher CC50 goes with better tolerance by the cells.

For the compound `CC(C)OC(=O)[C@H](C)N[P@](=O)(OCC1=C[C@@H](O)[C@H](n2ccc(N)nc2=O)O1)Oc1ccccc1` [Compound 21, 3′-Deoxy-3′,4′-didehydrocytidine-5′-O-[phenyl(isopropoxy-L-alaninyl) ]-Sp-phosphoramidate], the “levels of HIV p24 viral capsid protein” value in series [1] (100 μM, infected MDM, days 2-7, compared with DMSO control) is “significantly reduce; also recorded: significantly decreased”. In addition, the “impact on HIV replication relative to the DMSO control” value in series [1] (low doses: compound 8 compound 21 (0.1-1 μM) as printed) is reported as “minimal impact”. Also, the “activity against EBV” value in series [2] is listed as “more weakly inhibiting”. The EC50 was 23.7 µM in series [2] (setting [6]), 23.8 µM in series [2] (setting [7]) and 7.6 to 38.7 µM in series [2] (setting [8]). Further, the “LDH activity in HIV-infected MDMs relative to DMSO controls” value in series [3] (100 μM, day 4 of infection) was “nearly identical”. In addition, in series [3] (100 uM, visual inspection by light microscopy and colorimetric LDH assays), the “toxicity to MDMs” value was “non-toxic”. The same compound came in with a CC50 at 72 h in series [4] greater than 50 µM.

Regarding `CC(C)(C)C(=O)OCOP(=O)(OCOC(=O)C(C)(C)C)OCC1=C[C@@H](O)[C@H](n2ccc(N)nc2=O)O1` [Compound 35, 3′,4′-Didehydro-3′-deoxycytidine-5′-bis(pivaloyloxymethyl)phosphate], the “activity against EBV” value in series [2] was “inactive”.

Regarding `CC(C)C(=O)OCC1=CC[C@H](n2ccc(N)nc2=O)O1` [drawing 74, 3′,4′-Didehydro-2′,3′-dideoxy-5′-O-isobutyroylcytidine], in series [2] (setting [9]), the EC50 turned out to be 7.09 µM.

Turning to `CC(C)(C)C(=O)OCOP(=O)(OCOC(=O)C(C)(C)C)OCC1=C[C@@H](O)[C@H](n2ccc(N)nc2=O)O1` [drawing 76], in series [2] (setting [7]), the EC50 was greater than 50 µM.

Consider `CCC(CC)COC(=O)[C@H](C)N[P@](=O)(OCC1=C[C@@H](O)[C@H](n2ccc(N)nc2=O)O1)Oc1ccccc1` [Compound 32, 3′,4′-Didehydro-3′-deoxycytidine-5′-0-{phenyl [2-(ethyl)but-1-yloxy-L-alaninyl] }-Sp-phosphoramidate], for which the “activity against EBV” value in series [2] is given as “not active”.

As for `CCC(CC)COC(=O)[C@H](C)N[P@](=O)(OCC1=C[C@@H](O)[C@H](n2ccc(N)nc2=O)O1)Oc1ccccc1` [drawing 77], the EC50 in series [2] (setting [7]) is greater than 50 µM.

With `CC(C)[C@H](N)C(=O)OCC1=C[C@@H](O)[C@H](n2ccc(N)nc2=O)O1` [drawing 70], the EC50 in series [2] (setting [9]) was determined as 18.5 µM.

Turning to `CC(C)C(=O)OCC1=C[C@@H](O)[C@H](n2ccc(N)nc2=O)O1` [drawing 64, 3′-Deoxy-3′,4′-didehydro-5′-O-isobutyroyl-cytidine], the EC50 in series [2] (setting [9]) came to 16.1 µM.

Consider `CC(=O)OCC1=C[C@@H](O)[C@H](n2ccc(N)nc2=O)O1` [drawing 67], for which the EC50 in series [2] (setting [7]) was 8.96 µM.

For the compound `CC(C)(C)C(=O)OCC1=C[C@@H](O)[C@H](n2ccc(N)nc2=O)O1` [drawing 69], in series [2] (setting [9]), the EC50 worked out at 15.9 µM.

For the compound `CC(C)C(=O)OCC1=CC[C@H](n2ccc(N)nc2=O)O1` [drawing 73, 3′,4′-Didehydro-2′,3′-dideoxy-5′-O-isobutyroylcytidine], the EC50 in series [2] (setting [7]) was 6.31 µM.

On to `CC(C)(C)C(=O)SCCOP(=O)(OCCSC(=O)C(C)(C)C)OCC1=C[C@@H](O)[C@H](n2ccc(NO)nc2=O)O1`, for which, in series [2] (setting [10]), the EC50 stood at 16.6 µM.

As to `CC(=O)OCC1=C[C@@H](O)[C@H](n2ccc(N)nc2=O)O1` [drawing 68], the EC50 in series [2] (setting [10]) was found to be 7.96 µM.

For `Nc1ccn([C@H]2CC=C(CO)O2)c(=O)n1` [Compound A-30, 3′,4′-Didehydro-2′,3′-dideoxycytidine], in series [2], the “activity against EBV” value was “activity comparable to their 2′-hydroxylated analogues”.

As for `CCCCCC(=O)OCC1=C[C@@H](O)[C@H](n2ccc(N)nc2=O)O1` [Compound 27], the “activity against EBV” value in series [2] is “inactive”.

With `CCCCCC(=O)OCC1=C[C@@H](O)[C@H](n2ccc(N)nc2=O)O1` [drawing 75], the EC50 in series [2] (setting [7]) is greater than 50 µM.

For `CC(C)(C)C(=O)OCC1=C[C@@H](O)[C@H](n2ccc(N)nc2=O)O1` [Compound 25], in series [2], the “activity against EBV” value is recorded as “comparably active”.

`CC(C)C(=O)OCC1=CC[C@H](n2ccc(N)nc2=O)O1` [Compound 39, 3′,4′-Didehydro-2′,3′-dideoxy-5′-O-isobutyroylcytidine]: the “activity against HHV-6B” value in series [5] is given as “active”. Moreover, the EC50 in series [5] (Human betaherpesvirus 6B, MOLT-3, HHV-6B Z29, MOLT-3, Primary, read-out: Result for compound (EC50/UM)) was 5.54 µM; in series [5] (Human betaherpesvirus 6B, MOLT-3, HHV-6B Z29, MOLT-3, Secondary, read-out: Result for compound (EC50/UM)), 16.7 µM. Further, in series [2], the “activity against EBV” value was “activity comparable to their 2′-hydroxylated analogues”.

Consider `CC(C)[C@H](N)C(=O)OCC1=C[C@@H](O)[C@H](n2ccc(N)nc2=O)O1` [Compound 30, 3′,4′-Didehydro-3′-deoxy-5′-O-L-valinoylcytidine], for which, in series [2], the “activity against EBV” value was “comparably active”.

On to `Nc1ccn([C@H]2CC=C(CO)O2)c(=O)n1` [drawing 72, 3′,4′-Didehydro-2′,3′-dideoxycytidine], for which the EC50 in series [2] (setting [7]) was 29.6 µM.

Turning to `Nc1ccn(C[C@@H](CO)OCP(=O)(O)O)c(=O)n1` [Cidofovir, cidofovir, reference compound], the EC50 in series [5] (cidofovir (CDV) control, MOLT-3, HHV-6B, control run alongside, Primary, read-out: CDV control result (EC50/UM)) amounted to 3.42 µM; in series [5] (cidofovir (CDV) control, MOLT-3, HHV-6B, control run alongside, Secondary, read-out: CDV control result (EC50/UM)), 4.26 µM; in series [2] (EBV Akata/Akata, control run alongside, Primary, read-out: CDV control result (EC50/UM)) it was 2.58 µM; in series [2] (EBV Akata/Akata, control run alongside, Secondary, read-out: CDV control result (EC50/UM)), 1.93 µM; in series [2] (setting [6]), 8.25 µM; in series [2] (setting [8]), 8.25 µM. The EC50 in series [2] (read-out: CDV control result (EC50/UM), EBV Akata/Akata, control run alongside, Secondary) worked out at 5.95 µM. Moreover, the CC50 at 72 h in series [4] (Akata cells (without virus induction)) is greater than 100 µM.
